Assay results published in paper PMC7294773 (Neuropharmacology, 2017).
Entries after “also recorded” stand apart in the source; their conditions may differ. Like-named read-outs stand apart in the source and are kept apart here.

What was measured:
hSERT [1] = biological target: T1, hSERT (Homo sapiens, UniProt P31645); conditions: for Ionic current mediated via hSERT: cells clamped to −60 mV, representative traces; for Kind of current evoked in SERT-expressing cells: whole-cell patch clamp, in words
T1 sequence (P31645 whole entry): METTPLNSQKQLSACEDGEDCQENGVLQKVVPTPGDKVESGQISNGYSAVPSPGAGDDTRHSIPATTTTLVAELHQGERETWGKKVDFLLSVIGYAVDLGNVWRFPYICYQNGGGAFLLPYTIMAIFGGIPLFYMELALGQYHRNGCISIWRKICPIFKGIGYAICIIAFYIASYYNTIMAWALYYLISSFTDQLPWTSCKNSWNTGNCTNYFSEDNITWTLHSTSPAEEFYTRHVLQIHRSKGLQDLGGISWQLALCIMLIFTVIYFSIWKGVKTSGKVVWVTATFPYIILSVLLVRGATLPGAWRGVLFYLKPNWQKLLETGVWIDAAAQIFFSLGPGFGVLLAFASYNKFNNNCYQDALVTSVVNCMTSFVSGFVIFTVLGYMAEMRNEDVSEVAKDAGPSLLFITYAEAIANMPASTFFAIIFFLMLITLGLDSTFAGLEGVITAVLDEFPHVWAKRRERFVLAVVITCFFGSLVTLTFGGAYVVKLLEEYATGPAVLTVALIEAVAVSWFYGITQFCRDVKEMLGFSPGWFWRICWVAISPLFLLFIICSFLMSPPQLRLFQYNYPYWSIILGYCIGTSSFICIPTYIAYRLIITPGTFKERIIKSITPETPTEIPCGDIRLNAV

human DAT (hDAT) = human DAT (hDAT) (Homo sapiens, UniProt Q01959); experiment: Radiotracer uptake inhibition in HEK293 cells expressing hDAT; type: cell-based; conditions: for DAT / NET ratio (uptake inhibition): 1/(DAT IC50) divided by 1/(NET IC50); for DAT / SERT ratio (uptake inhibition): 1/(DAT IC50) divided by 1/(SERT IC50); for IC50: IC50 DAT, inhibition of transporter-mediated uptake, hDAT, [3H]MPP+ 20 nM, mean ± SEM, n=3
human DAT (hDAT), sequence (Q01959 whole entry): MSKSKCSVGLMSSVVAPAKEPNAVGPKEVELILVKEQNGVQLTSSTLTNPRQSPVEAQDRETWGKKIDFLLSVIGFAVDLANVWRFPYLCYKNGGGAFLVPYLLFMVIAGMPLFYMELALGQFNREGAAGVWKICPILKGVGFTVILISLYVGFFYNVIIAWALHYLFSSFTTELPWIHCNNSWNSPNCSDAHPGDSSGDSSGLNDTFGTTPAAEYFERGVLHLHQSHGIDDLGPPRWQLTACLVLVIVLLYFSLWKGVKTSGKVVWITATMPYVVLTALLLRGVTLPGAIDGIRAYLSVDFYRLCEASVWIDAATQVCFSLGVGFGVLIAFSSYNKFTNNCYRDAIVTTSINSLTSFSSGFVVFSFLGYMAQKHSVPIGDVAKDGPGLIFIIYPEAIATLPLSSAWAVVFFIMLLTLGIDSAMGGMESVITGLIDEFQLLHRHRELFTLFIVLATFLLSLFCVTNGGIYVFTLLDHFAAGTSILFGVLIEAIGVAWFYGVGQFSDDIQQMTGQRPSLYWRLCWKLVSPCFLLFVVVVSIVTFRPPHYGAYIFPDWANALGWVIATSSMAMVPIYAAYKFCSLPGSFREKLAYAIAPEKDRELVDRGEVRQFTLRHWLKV

human NET (hNET) = human NET (hNET) (Homo sapiens, UniProt P23975); experiment: Radiotracer uptake inhibition in HEK293 cells expressing hNET; type: cell-based; conditions: for NET / SERT ratio (uptake inhibition): 1/(NET IC50) divided by 1/(SERT IC50); for IC50: IC50 NET, inhibition of transporter-mediated uptake, hNET, [3H]MPP+ 20 nM, mean ± SEM, n=3
human NET (hNET), sequence (P23975 whole entry): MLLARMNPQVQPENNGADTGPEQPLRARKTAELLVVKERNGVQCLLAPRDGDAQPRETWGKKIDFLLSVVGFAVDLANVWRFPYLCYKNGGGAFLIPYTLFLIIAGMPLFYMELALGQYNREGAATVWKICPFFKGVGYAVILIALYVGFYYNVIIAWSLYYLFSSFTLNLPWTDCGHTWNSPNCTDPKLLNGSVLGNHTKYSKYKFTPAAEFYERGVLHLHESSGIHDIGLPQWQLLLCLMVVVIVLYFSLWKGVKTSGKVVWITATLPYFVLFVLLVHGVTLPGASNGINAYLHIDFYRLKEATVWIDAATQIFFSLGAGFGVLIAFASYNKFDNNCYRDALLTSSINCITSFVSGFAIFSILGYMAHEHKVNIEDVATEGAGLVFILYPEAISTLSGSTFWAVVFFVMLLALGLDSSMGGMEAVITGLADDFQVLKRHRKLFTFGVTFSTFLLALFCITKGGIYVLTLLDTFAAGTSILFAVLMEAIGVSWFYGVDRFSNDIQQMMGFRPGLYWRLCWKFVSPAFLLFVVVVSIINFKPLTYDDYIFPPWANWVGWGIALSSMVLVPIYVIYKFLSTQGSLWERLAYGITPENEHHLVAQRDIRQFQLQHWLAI

human SERT (hSERT) = human SERT (hSERT) (Homo sapiens, UniProt P31645); experiment: Radiotracer uptake inhibition in HEK293 cells expressing hSERT; type: cell-based; conditions: for IC50: IC50 SERT, inhibition of transporter-mediated uptake, hSERT, [3H]5HT 100 nM, mean ± SEM, n=3
human SERT (hSERT), sequence (P31645 whole entry): as the sequence (P31645 whole entry) above

hDAT [2] = biological target: T2, hDAT (Homo sapiens, UniProt Q01959); type: cell-based; conditions: 5 µM, without monensin, HEK293 cells
T2 sequence (Q01959 whole entry): as the sequence (Q01959 whole entry) above

hNET = hNET (Homo sapiens, UniProt P23975); type: cell-based; conditions: 5 µM, without monensin, HEK293 cells
hNET, sequence (P23975 whole entry): as the sequence (P23975 whole entry) above

hSERT [3] = biological target: T1, hSERT; type: cell-based; conditions: 5 µM, without monensin, HEK293 cells
DAT [4] = biological target: T3, DAT (Rattus norvegicus, UniProt P23977); experiment: Release of [3H]MPP+ from rat striatal synaptosomes; type: biochemical; conditions: for DAT / NET ratio (release): 1/(DAT EC50) divided by 1/(NET EC50); for DAT / NET ratio (release) / DAT / SERT ratio (release): rat brain synaptosomes; for DAT / SERT ratio (release): 1/(DAT EC50) divided by 1/(SERT EC50)
T3 sequence (P23977 whole entry): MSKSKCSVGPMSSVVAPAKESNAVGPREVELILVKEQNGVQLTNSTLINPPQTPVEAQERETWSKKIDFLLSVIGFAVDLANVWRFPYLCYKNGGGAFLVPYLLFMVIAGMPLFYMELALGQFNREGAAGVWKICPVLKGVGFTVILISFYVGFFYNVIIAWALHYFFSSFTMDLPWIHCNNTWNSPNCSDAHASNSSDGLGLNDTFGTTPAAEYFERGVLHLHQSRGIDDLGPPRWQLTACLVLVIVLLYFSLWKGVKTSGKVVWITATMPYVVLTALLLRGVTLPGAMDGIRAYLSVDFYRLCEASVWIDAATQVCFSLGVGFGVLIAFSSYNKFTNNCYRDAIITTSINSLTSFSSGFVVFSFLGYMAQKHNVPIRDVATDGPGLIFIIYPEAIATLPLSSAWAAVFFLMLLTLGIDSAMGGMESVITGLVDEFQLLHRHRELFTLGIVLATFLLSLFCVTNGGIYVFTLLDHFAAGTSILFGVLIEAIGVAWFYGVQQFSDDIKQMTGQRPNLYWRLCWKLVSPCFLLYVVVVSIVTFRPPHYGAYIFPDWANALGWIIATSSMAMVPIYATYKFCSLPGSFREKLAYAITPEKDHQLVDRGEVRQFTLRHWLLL

NET = experiment: Release of [3H]MPP+ from rat brain synaptosomes; type: biochemical; conditions: 1/(NET EC50) divided by 1/(SERT EC50)
SERT = SERT (Rattus norvegicus, UniProt P31652); experiment: Release of [3H]5-HT from rat brain synaptosomes; type: biochemical
SERT, sequence (P31652 whole entry): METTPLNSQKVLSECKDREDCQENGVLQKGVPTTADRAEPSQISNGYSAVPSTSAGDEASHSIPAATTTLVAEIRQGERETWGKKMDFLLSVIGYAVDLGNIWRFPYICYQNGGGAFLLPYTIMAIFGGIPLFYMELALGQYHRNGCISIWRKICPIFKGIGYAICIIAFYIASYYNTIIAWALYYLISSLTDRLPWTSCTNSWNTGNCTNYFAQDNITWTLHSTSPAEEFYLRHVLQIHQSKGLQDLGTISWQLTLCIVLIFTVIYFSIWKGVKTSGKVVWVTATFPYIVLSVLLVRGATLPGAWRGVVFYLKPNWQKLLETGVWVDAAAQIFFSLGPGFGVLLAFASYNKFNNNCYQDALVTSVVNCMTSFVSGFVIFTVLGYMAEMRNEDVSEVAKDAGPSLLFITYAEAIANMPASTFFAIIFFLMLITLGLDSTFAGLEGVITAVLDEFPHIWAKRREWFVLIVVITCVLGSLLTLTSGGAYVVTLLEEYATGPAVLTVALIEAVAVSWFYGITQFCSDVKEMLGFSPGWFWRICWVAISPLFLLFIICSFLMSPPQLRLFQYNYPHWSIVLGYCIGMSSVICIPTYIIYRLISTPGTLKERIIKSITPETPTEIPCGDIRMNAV

[5] = tested on: vesicular monoamine transporter 2 (VMAT2); conditions: at concentrations up to 100 μM; ref Partilla et al., 2006; cited from earlier work
DAT [6] = biological target: T3, DAT; conditions: in vitro findings; ref Rothman et al., 2002; cited from earlier work
[7] = tested on: extracellular dopamine and serotonin in rat nucleus accumbens; conditions: systemic administration, ref Rothman et al., 2002; cited from earlier work
hDAT [8] = biological target: T2, hDAT; conditions: ref Solis et al., 2016; cited from earlier work

SMILES | Ionic current mediated via hSERT (hSERT [1]; 30 µM) | Kind of current evoked in SERT-expressing cells (hSERT [1]) | DAT / NET ratio (uptake inhibition) (human DAT (hDAT)) | DAT / SERT ratio (uptake inhibition) (human DAT (hDAT)) | IC50 (human DAT (hDAT)) | NET / SERT ratio (uptake inhibition) (human NET (hNET)) | IC50 (human NET (hNET)) | IC50 (human SERT (hSERT)) | Effect on efflux of [3H]MPP+ via hDAT versus basal (hDAT [2]) | Effect on efflux of [3H]MPP+ via hNET versus basal (hNET) | Effect on efflux of [3H]5-HT via hSERT versus basal (hSERT [3]) | EC50 (DAT [4]) | DAT / NET ratio (release) (DAT [4]) | DAT / SERT ratio (release) (DAT [4]) | NET / SERT ratio (release) (NET) | EC50 (SERT) | Ionic current mediated via hSERT (hSERT [1]; 10 µM) | further results
NCCc1c[nH]c2ccc(O)cc12 [5-HT, 5-hydroxytryptamine, reference compound] | −7 pA | inwardly directed ionic currents |  |  |  |  |  |  |  |  |  |  |  |  |  |  |  | 
CC1NCCOC1c1ccccc1F (centres unmarked) [2-FPM, 2-(2-Fluorophenyl)-3-methylmorpholine] | −4 pA | inwardly directed ionic currents | 0.97 | 340.1 | 1330 ± 90 nM | 351.4 | 1290 ± 30 nM | 454 ± 15.4 µM | increased tritium outflow above basal levels | increased tritium outflow above basal levels | no detectable effect | 112 ± 10 nM | 0.25 | 43 | 172 | 4810 ± 1260 nM |  | Effect on SERT mediated uptake (human SERT (hSERT); at concentrations below 30 µM): no obvious effect
COC(=O)[C@H]1[C@@H](OC(=O)c2ccccc2)C[C@@H]2CC[C@H]1N2C [cocaine, reference compound] |  |  |  |  |  |  |  |  |  |  |  |  |  |  |  |  | outwardly directed current | 
CC1NCCOC1c1ccc(F)cc1 (centres unmarked) [4-FPM, 2-(4-fluorophenyl)-3-methylmorpholine] |  | inwardly directed ionic currents | 0.96 | 41.2 | 2140 ± 390 nM | 42.9 | 2050 ± 280 nM | 88.1 ± 1.83 µM | increased tritium outflow above basal levels | increased tritium outflow above basal levels | significantly enhanced basal release; also recorded: moderate release | 191 ± 17 nM | 0.30 | 10 | 33 | 1890 ± 424 nM | −2.5 pA | 
CC1NCCOC1c1ccccc1 (centres unmarked) [phenmetrazine] |  |  |  |  |  |  |  |  |  |  |  |  |  |  |  |  |  | Interaction with VMAT2 as an inhibitor or substrate [5]: does not interact; DAT-selectivity compared to SERT (DAT [6]): at least 10 fold; Extracellular dopamine and serotonin in nucleus accumbens [7]: dose-related elevations; Current induced in cells expressing hDAT (hDAT [8]): inwardly-directed sodium current
CC1NCCOC1c1cccc(F)c1 (centres unmarked) [3-FPM, 2-(3-fluorophenyl)-3-methylmorpholine] |  | inwardly directed ionic currents | 1.31 | 96.4 | 1160 ± 290 nM | 73.7 | 1510 ± 170 nM | 112 ± 13.1 µM |  |  |  | 60 ± 4 nM | 0.28 | 21 | 75 | 1270 ± 207 nM | −3.8 pA | 
